Reference: ChEMBL document CHEMBL1201862, “PubChem BioAssay data set” (2004)
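In this assay, cells in 96-well plates receive the compound at five concentrations for 48 hours. Endpoints are linearly interpolated between the surrounding concentrations. GI50 is the concentration that inhibits growth by half.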 Calls of active or inactive are those of the source. No stated cut-off is given here; in the data, active = GI50 up to about 1.1 µM and inactive = higher.

Tests used:
Experiment in all cases: inhibition of tumour cell growth, NCI panel, 48 h
HT-29 = test system: HT-29
SF-268 = test system: SF-268
MDA-N = test system: MDA-N
Hs-578T = test system: Hs-578T
NCI-H226 = test system: NCI-H226
MDA-MB-435 = test system: MDA-MB-435
NCI-H460 = test system: NCI-H460
M14 = test system: M14
HL-60 = test system: HL-60
A498 = test system: A498
TK-10 = test system: TK-10
SNB-19 = test system: SNB-19
NCI-H522 = test system: NCI-H522
UACC-62 = test system: UACC-62
U-251 = test system: U-251
RXF 393 = test system: RXF 393
UO-31 = test system: UO-31
A549 = test system: A549
SNB-75 = test system: SNB-75
SK-MEL-5 = test system: SK-MEL-5
HCC 2998 = test system: HCC 2998
MDA-MB-231 = test system: MDA-MB-231
LOX IMVI = test system: LOX IMVI
DU-145 = test system: DU-145
ACHN = test system: ACHN
HCT-116 = test system: HCT-116
SN12C = test system: SN12C
MOLT-4 = test system: MOLT-4
KM12 = test system: KM12
EKVX = test system: EKVX
OVCAR-4 = test system: OVCAR-4
786-0 = test system: 786-0
K562 = test system: K562
CCRF-CEM = test system: CCRF-CEM
BT-549 = test system: BT-549
OVCAR-8 = test system: OVCAR-8
SK-MEL-2 = test system: SK-MEL-2
SK-MEL-28 = test system: SK-MEL-28
COLO 205 = test system: COLO 205
CAKI-1 = test system: CAKI-1
IGROV-1 = test system: IGROV-1
OVCAR-3 = test system: OVCAR-3
Malme-3M = test system: Malme-3M
PC-3 = test system: PC-3
SW-620 = test system: SW-620
T47D = test system: T47D
NCI-H23 = test system: NCI-H23
HOP-92 = test system: HOP-92
NCI/ADR-RES = test system: NCI/ADR-RES
MCF7 = test system: MCF7
SF-295 = test system: SF-295
OVCAR-5 = test system: OVCAR-5
UACC-257 = test system: UACC-257
HCT-15 = test system: HCT-15
SK-OV-3 = test system: SK-OV-3
HOP-62 = test system: HOP-62
RPMI-8226 = test system: RPMI-8226
SF-539 = test system: SF-539

## O=[N+]([O-])c1ccc2c(c1)nc(Cc1ccccc1)n2C[C@@H]1CCCN2CCCCC12 (stereo partly specified)
HT-29
  GI50: 17.5 µM (inactive)
SF-268
  GI50: 45.8 µM (inactive)
MDA-N
  GI50: 20.6 µM (inactive)
Hs-578T
  GI50: 38.5 µM (inactive)
NCI-H226
  GI50: 89.9 µM (inactive)
MDA-MB-435
  GI50: 17.2 µM (inactive)
NCI-H460
  GI50: 41.4 µM (inactive)
M14
  GI50: 18.2 µM (inactive)
HL-60
  GI50: < 0.01 µM (active)
A498
  GI50: 13.4 µM (inactive)
TK-10
  GI50: 37.5 µM (inactive)
SNB-19
  GI50: 56.4 µM (inactive)
NCI-H522
  GI50: 21.6 µM (inactive)
UACC-62
  GI50: 19.5 µM (inactive)
U-251
  GI50: 44.7 µM (inactive)
RXF 393
  GI50: 19.4 µM (inactive)
UO-31
  GI50: 6.49 µM (inactive)
A549
  GI50: 51.2 µM (inactive)
SNB-75
  GI50: 63.5 µM (inactive)
SK-MEL-5
  GI50: 16.5 µM (inactive)
HCC 2998
  GI50: 12.9 µM (inactive)
MDA-MB-231
  GI50: 31.3 µM (inactive)
LOX IMVI
  GI50: 20.4 µM (inactive)
DU-145
  GI50: 60.5 µM (inactive)
ACHN
  GI50: 57.8 µM (inactive)
HCT-116
  GI50: 33.7 µM (inactive)
SN12C
  GI50: 48 µM (inactive)
MOLT-4
  GI50: 17.4 µM (inactive)
KM12
  GI50: 21.3 µM (inactive)
EKVX
  GI50: 17.1 µM (inactive)
OVCAR-4
  GI50: 27.4 µM (inactive)
786-0
  GI50: 22.3 µM (inactive)
K562
  GI50: 18.7 µM (inactive)
CCRF-CEM
  GI50: 17.6 µM (inactive)
BT-549
  GI50: 26.7 µM (inactive)
OVCAR-8
  GI50: 34.9 µM (inactive)
SK-MEL-2
  GI50: 20.9 µM (inactive)
SK-MEL-28
  GI50: 18.6 µM (inactive)
COLO 205
  GI50: 17.3 µM (inactive)
CAKI-1
  GI50: 28.3 µM (inactive)
IGROV-1
  GI50: 25.8 µM (inactive)
OVCAR-3
  GI50: 41.5 µM (inactive)
Malme-3M
  GI50: 14.2 µM (inactive)
PC-3
  GI50: 37.3 µM (inactive)
SW-620
  GI50: 40.4 µM (inactive)
T47D
  GI50: 39.4 µM (inactive)
NCI-H23
  GI50: 27.5 µM (inactive)
HOP-92
  GI50: 3.71 µM (inactive)
NCI/ADR-RES
  GI50: 22.9 µM (inactive)
MCF7
  GI50: 41.1 µM (inactive)
SF-295
  GI50: 18 µM (inactive)
OVCAR-5
  GI50: 28.5 µM (inactive)
UACC-257
  GI50: 15.8 µM (inactive)
HCT-15
  GI50: 36.9 µM
SK-OV-3
  GI50: 34.4 µM (inactive)
HOP-62
  GI50: > 100 µM (inactive)

## COc1cc2cc3c4cc(OC)c(OC)cc4cc[n+]3c(C)c2cc1OC [CORALYNE]
HT-29
  GI50: 77.4 µM (inactive)
SF-268
  GI50: 1.96 µM (inactive)
MDA-N
  GI50: > 100 µM (inactive)
Hs-578T
  GI50: 24.9 µM (inactive)
NCI-H226
  GI50: 30.4 µM (inactive)
MDA-MB-435
  GI50: > 100 µM (inactive)
NCI-H460
  GI50: 38.9 µM (inactive)
HL-60
  GI50: > 100 µM (inactive)
A498
  GI50: 6.05 µM (inactive)
TK-10
  GI50: > 100 µM (inactive)
SNB-19
  GI50: 13.4 µM (inactive)
NCI-H522
  GI50: 40 µM (inactive)
UACC-62
  GI50: 23.4 µM (inactive)
U-251
  GI50: 9.59 µM (inactive)
UO-31
  GI50: > 100 µM (inactive)
A549
  GI50: > 100 µM (inactive)
SNB-75
  GI50: 10.2 µM (inactive)
SK-MEL-5
  GI50: 72.1 µM (inactive)
HCC 2998
  GI50: 42.7 µM (inactive)
MDA-MB-231
  GI50: > 100 µM (inactive)
LOX IMVI
  GI50: > 100 µM (inactive)
DU-145
  GI50: > 100 µM (inactive)
ACHN
  GI50: > 100 µM (inactive)
HCT-116
  GI50: > 100 µM (inactive)
SN12C
  GI50: 5.74 µM (inactive)
MOLT-4
  GI50: > 100 µM (inactive)
KM12
  GI50: 88.7 µM (inactive)
EKVX
  GI50: 60.7 µM (inactive)
OVCAR-4
  GI50: 67.5 µM (inactive)
RPMI-8226
  GI50: > 100 µM (inactive)
786-0
  GI50: 15.6 µM (inactive)
K562
  GI50: 91.4 µM (inactive)
CCRF-CEM
  GI50: > 100 µM (inactive)
BT-549
  GI50: 10.8 µM (inactive)
OVCAR-8
  GI50: > 100 µM (inactive)
SK-MEL-2
  GI50: > 100 µM (inactive)
SK-MEL-28
  GI50: > 100 µM (inactive)
COLO 205
  GI50: 47.3 µM (inactive)
CAKI-1
  GI50: 67.1 µM (inactive)
IGROV-1
  GI50: 37.3 µM (inactive)
OVCAR-3
  GI50: > 100 µM (inactive)
Malme-3M
  GI50: 60.1 µM (inactive)
PC-3
  GI50: > 100 µM (inactive)
SW-620
  GI50: 58.7 µM (inactive)
T47D
  GI50: > 100 µM (inactive)
NCI-H23
  GI50: > 100 µM (inactive)
HOP-92
  GI50: > 100 µM (inactive)
NCI/ADR-RES
  GI50: > 100 µM (inactive)
MCF7
  GI50: > 100 µM (inactive)
SF-295
  GI50: 28.6 µM (inactive)
SF-539
  GI50: 41.7 µM (inactive)
OVCAR-5
  GI50: > 100 µM (inactive)
UACC-257
  GI50: 35.4 µM (inactive)
HCT-15
  GI50: 48.2 µM
SK-OV-3
  GI50: > 100 µM (inactive)
